Assays:
[1] = test system: CD1 male mice, carrageenan-λ induced pleurisy; assay: carrageenan-λ induced lung (pleural cavity) inflammation in mice; assay type: in vivo, mouse; conditions: for number of neutrophils relative to untreated carrageenan-λ control (100%): 4 h after carrageenan
[2] = test system: BALB/c mice, OVA sensitized and challenged; assay: ovalbumin (OVA) sensitized mouse model of asthma; assay type: in vivo; conditions: for IL-13: s.c. once daily, dexamethasone 5 mg/kg, compound 1 mg/mouse
Description: BALB/c mice were sensitized by intraperitoneal injection with OVA (in alum adjuvant) on days 1, and 12. Airways were challenged with OVA on days 28 and 30 by delivery of OVA to the lung, or with saline. […] The remaining animals were divided into 6 groups (6 mice per group). Groups of the mice were treated once daily by subcutaneous injection as follows. Group 1 vehicle control (0.1% carboxymethyl cellulose, 0.9% saline, 2% tween 80, 0.05% phenol). Group 2 dexamethazone (5 mg/kg). Group 3 3α,16α,17α-trihydroxyandrostane (1 mg/mouse). Three animals in groups 1-3 were sacrificed on day 35 at 1 hr after final treatment and the remaining 3 animals in groups 1-3 were sacrificed on day 38.

[3] = metabolic stability in liver microsomes, species not stated; assay type: in vitro ADME; conditions: compared with androst-5-ene-3β,17β-diol reference compound
Description: (§1) The protocol was performed as follows. […] (2) Set up samples as follows. […] (4) The internal standard/acetonitrile solution.

[4] = test system: NF-κB in spleen cells of ICR mice; assay: activated NF-κB in spleen cell nuclei after LPS, Example 8; assay type: in vivo, mouse; conditions: about 40 mg/kg i.p. 24 h before and 1 h after LPS; spleens 1.5 hours after LPS
Description: The capacity of selected compounds to treat LPS induced shock/inflammation in mice was examined by a protocol similar to the protocol described above. Five groups of three ICR mice weighing about 30 g were each treated by intraperitoneal injection with 120 μL vehicle (30% sulfobutylether-cyclodextrin in water), androst-5-ene-3α,7β,16α,17β-tetrol in vehicle, androst-5-ene-3β,4β,16α,17β-tetrol in vehicle or 4β-acetoxyandrost-5-ene-3β,16α,17β-triol in vehicle. All drug and vehicle formulations were solutions, not suspensions. The sulfobutylether-cyclodextrin was obtained commercially (Captisol™, www.cyclexinc.com). There were two vehicle control groups one group received vehicle alone and the other received vehicle plus LPS. […] Drug was administered at about 40 mg/kg (1.2 mg drug/animal for each administration of the drugs). Spleens were harvested from the animals at 1.5 hours after injection of LPS and spleen cells were lysed and assayed for activated NF-κB by isolating nuclei from spleen cells and measuring NF-κB from the lysed nuclei. […] The level of activated NF-κB in spleen cells from the animals that were treated with vehicle and no LPS, was essentially the same as the activated NF-κB in spleen cells from drug treated animals.

[5] = test system: human peripheral blood mononuclear cells (PBMC); assay: human mixed lymphocyte reaction (MLR); assay type: cell-based; conditions: 6 days
Description: Human mixed lymphocyte reaction (MLR). The capacity of 3β,16α-dihydroxy-17-oxoandrostane, 3β,17β-dihydroxy-16-oxoandrostane, 17α-ethynylandrost-5-ene-3β,7β,17β-triol, and 17β-aminoandrost-5-ene-3β-ol to affect antigen specific stimulation in which human T lymphocytes respond to a specific foreign antigen (major histocompatibility complex).
Blood samples were obtained from 3 (2 males, […]) fasting, healthy human volunteers of 23-31 years old. […] The subjects were bled between […] to limit possible fluctuations in the circulating levels of hormones or cytokines that could have influenced the in vitro responses of their lymphocytes. Peripheral blood mononuclear cells (PBMC) were isolated by centrifugation on Ficoll-Hypaque (density 1.077, Biochrom AG, Berlin, Germany) gradients and resuspended in culture medium (RPMI 1640 supplemented with 2 mM L-glutamine, penicillin (100 U/mL) and streptomycin ([…]) (Invitrogen s.rl., Milan, Italy). Autologous (responder) inactivated plasma was used at 10%. Five hundred thousand responder PBMC (PBMCr) and 500,000 allogeneic irradiated (30 Gy) stimulator PBMC (PBMCs) were mixed at a ratio of 1:1 in 200 μL medium and cultured for 6 days in flat bottom 96 well plates (Nunc, Roskilde, Denmark) at a concentration of 300 nM or 30 nM for each of the 4 compounds. The compounds were dissolved in ethanol and then diluted to the desired concentration with culture medium leading to a final solution containing 0.01% of ethanol. This vehicle was used as control. Controls also included PBMCr and PBMCs cultured separately. During the last 8 hours of the culture period the PBMC were pulsed with 1 μCi/well [^3H] thymidine (Amersham, Milan, Italy). The cells were then harvested and radioactivity incorporation measured with a beta cell counter. The mean cpm of quadruplicate wells was calculated. Proliferation of T cells was expressed as a stimulation index: SI=cpm (PMBCs xPBMCr)/cpm (PBMCr)+cpm (PBMCs). Statistical analysis was performed using the Student's t test. The cpm obtained from quadruplicate of each test compound were compared to proliferative responses obtained in control PBMCr and PBMCs cultured in the presence of the vehicle. Differences were considered significant at p<0.05.

Balb/c mice, ear burn = assay: thermal injury model using mouse ear tissue; assay type: in vivo; conditions: injection in propylene glycol after burn
Description: A thermal injury model using mouse ear tissue was used to characterize compounds for their capacity to treat inflammation associated with thermal trauma. […] Groups of Balb/c mice, approximately nine weeks old were given an identifying mark and then divided into control and treated subgroups. The thickness of the ear to be immersed in hot water was recorded, and then the entire ear of the anesthetized mouse was dipped into 52° C. water for 24 seconds. Each mouse was returned to its cage after an injection of either the propylene glycol vehicle (control) or 100 mg of compound in propylene glycol. Ear swelling changes were monitored on individual mice at pre-burn, and at various times after thermal injury. Ear swelling changes were monitored on individual mice at pre-injury and at 1, 3, 6, 9, 12, 18, 24 and 48 hours after thermal injury. Animals were treated with 100 mg of dehydroepiandrosterone (DHEA) dissolved in propylene glycol.

female SJL/J mice, EAE = assay: experimental allergic encephalomyelitis (EAE), PLP 139-151, Example 6; assay type: in vivo, mouse; conditions: 5 mg/kg daily by oral gavage, through day 26
From the text: Treatment of autoimmune neurodegeneration. Three compounds, 17β-aminoandrost-5-ene-3β-ol, 17β-dimethylaminoandrost-5-ene-3β-ol and 17β-methylaminoandrost-5-ene-3β-ol were characterized for their capacity to ameliorate experimental allergic encephalomyelitis (EAE) in mice. This demyelinating condition is extensively used as a model for multiple sclerosis in humans and for testing of new therapies for treating multiple sclerosis, e.g., B. F. Bebo Jr. et al., J. Neurosci. Res. 52:420-426 1998; R. R. Voskuhl et al., Neuroscientist, 7:258-270 2001; H. Offner et al., J. Neuroimmunol., 130:128-139 2002.
In this protocol, the compounds were administered to female SJL/J mice by oral gavage at the onset of disease symptoms. An antigen was used to initiate the EAE condition in the mice. […] Immunization with this peptide antigen initiates an autoimmune Th1 mediated demyelinating disease of the central nervous system. The antigen was prepared by solid phase synthesis and purified by high-performance liquid chromatography. […] The immunization protocol was subcutaneous injection over four sites on the hind flank on day 0. After immunization. the mice were assessed daily for clinical signs of EAE using the following scale: 0=no clinical signs or symptoms; 1=limp tail; 2=mild hind limb weakness and limp tail; 3=moderate hind limb weakness and limp tail or mild ataxia; 4=severe hind limb weakness and mild forearm weakness with moderate ataxia; 5=paraplegia with no more than moderate forelimb weakness; 6=paraplegia with severe forelimb weakness or severe ataxia or moribund condition.
Mice in the vehicle control group began to show observable symptoms of EAE at about 10-11 days after immunization with the PLP antigen, which is typical for the EAE disease model. The animals were dosed daily with 17β-aminoandrost-5-ene-3β-ol, 17β-dimethylaminoandrost-5-ene-3β-ol or 17β-methylaminoandrost-5-ene-3β-ol by oral gavage beginning at day 1, which was 1 day after immunization.

NF-κB = assay: NF-κB-bla THP-1 β-lactamase reporter assay; assay type: cell-based, human; conditions: Homo sapiens, THP-1, read-out: IC50 for inhibition of NF-κB activation, after LPS stimulation; 50% of the maximum inhibition the compound can induce; averages of 2-4 assays
[6] = metabolic stability in liver microsomes: mouse; conditions: 10 min
Description: as §1

MG-63 cells = assay: reversal of glucocorticoid effects in MG-63 osteosarcoma cells; assay type: cell-based, human; conditions: 10 nM compound
[7] = metabolic stability in liver microsomes: human
Description: as §1

C[C@]12CC[C@H]3[C@@H](CCC4C[C@H](O)CC[C@@]43C)[C@@H]1C[C@@H](O)[C@H]2O (stereo partly drawn) [3α,16α,17α-trihydroxyandrostane]
number of neutrophils relative to untreated carrageenan-λ control (100%) ([1]; 0.001 mg s.c. 24 h and 1 h before carrageenan-λ): 103% | number of neutrophils relative to untreated carrageenan-λ control (100%) ([1]; 0.01 mg s.c. 24 h and 1 h before carrageenan-λ): 45% | number of neutrophils in the pleura ([1]; 0.1 mg and 0.01 mg doses s.c.): significant reduction | number of neutrophils relative to untreated carrageenan-λ control (100%) ([1]; 0.1 mg s.c. 24 h and 1 h before carrageenan-λ): 30% | IL-13 ([2]; day 35): 195 pg/mL | IL-5 in lung tissue ([2]; day 38): 90 pg/mL | IL-13 ([2]; day 38): 210 pg/mL | metabolism by microsomes [3]: metabolized by microsomes at a rate similar to the androst-5-ene-3β,17β-diol reference compound

C[C@]12CC[C@H]3[C@@H](CC=C4[C@@H](O)[C@@H](O)CC[C@@]43C)[C@@H]1C[C@@H](O)[C@@H]2O [3β,4β,16α,17β-tetrahydroxyandrost-5-ene]
decrease of NF-κB activation compared to LPS+vehicle control group [4]: about 50%

C[C@]12CC[C@H]3[C@@H](CCC4C[C@@H](O)CC[C@@]43C)[C@@H]1CC(=O)[C@@H]2O (stereo partly drawn) [3β,17β-dihydroxy-16-oxoandrostane]
immune suppression in the MLR ([5]; either 300 nM or 30 nM, p>0.05): not appreciably immune suppressive

CC(=O)O[C@@H]1C2=CC[C@H]3[C@@H]4C[C@@H](O)[C@H](O)[C@@]4(C)CC[C@@H]3[C@@]2(C)CC[C@@H]1O [4β-acetoxy-3β,16α,17β-trihydroxyandrost-5-ene]
decrease of NF-κB activation compared to LPS+vehicle control group [4]: about 50%

C[C@]12CC[C@H](O)CC1=CC[C@@H]1[C@@H]2CC[C@]2(C)C(=O)[C@H](Br)C[C@@H]12 [16α-bromodehydroepiandrosterone]
protection against progressive ischemia after thermal injury to the ear (Balb/c mice, ear burn): protected treated animals against much of the ischemic consequences

C[C@]12CC[C@H](O)CC1=CC[C@@H]1[C@@H]2CC[C@]2(C)C(=O)[C@H](Cl)C[C@@H]12 [16α-chlorodehydroepiandrosterone]
protection against progressive ischemia after thermal injury to the ear (Balb/c mice, ear burn): only slightly protective

C[C@]12CC[C@H](O)CC1=CC[C@@H]1[C@@H]2CC[C@]2(C)C(=O)[C@H](O)C[C@@H]12 [16α-hydroxydehydroepiandrosterone]
protection against progressive ischemia after thermal injury to the ear (Balb/c mice, ear burn): less protective

C[C@]12CC[C@H]3[C@@H](CC=C4C[C@@H](O)CC[C@@]43C)[C@@H]1CC[C@@H]2N [17β-aminoandrost-5-ene-3β-ol]
anti-inflammation activity versus vehicle controls ([1]; 40 mg/kg by oral gavage, about 0.5 mg/mouse): statistically significant anti-inflammation activity | immune suppression in the MLR ([5]; 300 nM, p<0.05): moderately immune suppressive | activity on clinical severity of EAE symptoms (female SJL/J mice, EAE): active

CN(C)[C@H]1CC[C@H]2[C@@H]3CC=C4C[C@@H](O)CC[C@]4(C)[C@H]3CC[C@]12C [17β-dimethylaminoandrost-5-ene-3β-ol]
activity on clinical severity of EAE symptoms (female SJL/J mice, EAE): active

CN[C@H]1CC[C@H]2[C@@H]3CC=C4C[C@@H](O)CC[C@]4(C)[C@H]3CC[C@]12C [17β-methylaminoandrost-5-ene-3β-ol]
activity on clinical severity of EAE symptoms (female SJL/J mice, EAE): active

C[C@]12CC[C@H]3[C@@H]([C@H](O)C=C4C[C@@H](O)CC[C@@]43C)[C@@H]1C[C@@H](O)[C@@H]2O [androst-5-ene-3β,7α,16α,17β-tetrol]
IC50 (NF-κB): > 10 µM | parent remaining mouse microsomes [6]: 100% (10 min) | osteoprotegerin levels in the presence of 30 nM dexamethasone (MG-63 cells): near normal osteoprotegerin levels | parent remaining human microsomes ([7]; 10 min): 100% (10 min)

C[C@]12CC[C@H]3[C@@H](CC=C4C[C@@H](O)CC[C@@]43C)[C@@H]1C[C@@H](O)[C@@H]2O [androst-5-ene-3β,16α,17β-triol]
metabolism by microsomes [3]: metabolized by microsomes at a rate similar to the androst-5-ene-3β,17β-diol reference compound

C[C@]12CC[C@H]3[C@@H](CC=C4C[C@@H](O)CC[C@@]43C)[C@@H]1CC[C@@H]2O [androst-5-ene-3β,17β-diol]
parent remaining mouse microsomes [6]: 25% (10 min) | protection against progressive ischemia after thermal injury to the ear (Balb/c mice, ear burn): protected treated animals against much of the ischemic consequences | parent remaining human microsomes ([7]; 10 min): 39% (10 min) | parent remaining human microsomes ([7]; 90 min): 30% (90 min)
